“And” between values parts separate entries of the source, which are not always exact repeats. Equal entries are not always repeated. Inconclusive results and toxic doses are left out.
System: P388 leukemia ip, CD2F1 mice, survival T/C
Test: NCI In Vivo Anticancer Drug Screen. Data for tumor model P388 Leukemia (intraperitoneal) in CD2F1 (CDF1) mice
Conditions: endpoint: median survival time, higher = longer survival
In short: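 Mice carrying the transplanted tumor received test compound or vehicle. Survival was recorded in each group, and the value is the treated-group measurement divided by that of the vehicle-treated control group.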

[1] = dose: 50.0 mg/kg/injection, schedule: Q01DX005 (ip), vehicle: saline with Tween-80
[2] = dose: 100.0 mg/kg/injection, schedule: Q01DX005 (ip), vehicle: saline with Tween-80
[3] = dose: 12.5 mg/kg/injection, schedule: Q01DX005 (ip), vehicle: Klucel (hydroxypropylcellulose) (HPC)
[4] = dose: 25.0 mg/kg/injection, schedule: Q01DX005 (ip), vehicle: Klucel (hydroxypropylcellulose) (HPC)
[5] = dose: 100.0 mg/kg/injection, schedule: Q01DX005 (ip), vehicle: Klucel (hydroxypropylcellulose) (HPC)
[6] = dose: 12.5 mg/kg/injection, schedule: Q01DX009 (ip), vehicle: Klucel (hydroxypropylcellulose) (HPC)
[7] = dose: 25.0 mg/kg/injection, schedule: Q01DX009 (ip), vehicle: Klucel (hydroxypropylcellulose) (HPC)
[8] = dose: 6.25 mg/kg/injection, schedule: Q01DX005 (ip), vehicle: saline
[9] = dose: 12.5 mg/kg/injection, schedule: Q01DX005 (ip), vehicle: saline
[10] = dose: 25.0 mg/kg/injection, schedule: Q01DX005 (ip), vehicle: saline
[11] = dose: 50.0 mg/kg/injection, schedule: Q01DX005 (ip), vehicle: saline
[12] = dose: 100.0 mg/kg/injection, schedule: Q01DX005 (ip), vehicle: saline
[13] = dose: 50.0 mg/kg/injection, schedule: Q01DX009 (ip), vehicle: saline with Tween-80
[14] = dose: 100.0 mg/kg/injection, schedule: Q01DX009 (ip), vehicle: saline with Tween-80

## CCCCCN(CCCCC)C(C)C(O)c1ccc2cc(Cl)c3ccccc3c2c1 (configuration not stated)
[1]
  T/C: 99 % of control
[2]
  T/C: 101 % of control

## COC(=O)c1ccc(N=NN(C)CN=[N+]=[N-])cc1
[3]
  T/C: 106 % of control
[4]
  T/C: 124 % of control
[5]
  T/C: 160 % of control and 172 % of control

## COc1ccc(NCC(=O)O)c([N+](=O)[O-])c1
dose: 100.0 mg/kg/injection, schedule: Q01DX001 (ip), vehicle: saline with Tween-80
  T/C: 100 % of control
dose: 200.0 mg/kg/injection, schedule: Q01DX001 (ip), vehicle: saline with Tween-80
  T/C: 109 % of control
dose: 400.0 mg/kg/injection, schedule: Q01DX001 (ip), vehicle: saline with Tween-80
  T/C: 109 % of control

## [Cl][Cu][Cl].c1ccc2[nH]cnc2c1.c1ccc2[nH]cnc2c1
dose: 6.25 mg/kg/injection, schedule: Q01DX009 (ip), vehicle: Klucel (hydroxypropylcellulose) (HPC)
  T/C: 113 % of control
[6]
  T/C: 104 % of control
[7]
  T/C: 100 % of control

## CCOC(=O)C1=C(C)NC(C)=C(C(=O)OCC)C1c1ccncc1
dose: 25.0 mg/kg/injection, schedule: Q01DX009 (ip), vehicle: other
  T/C: 103 % of control
dose: 50.0 mg/kg/injection, schedule: Q01DX009 (ip), vehicle: other
  T/C: 89 % of control
dose: 100.0 mg/kg/injection, schedule: Q01DX009 (ip), vehicle: other
  T/C: 96 % of control
dose: 200.0 mg/kg/injection, schedule: Q01DX009 (ip), vehicle: other
  T/C: 97 % of control
dose: 400.0 mg/kg/injection, schedule: Q01DX009 (ip), vehicle: other
  T/C: 95 % of control

## Nc1c(Cl)sc2ccccc2c1=O
[1]
  T/C: 91 % of control
[2]
  T/C: 91 % of control
dose: 200.0 mg/kg/injection, schedule: Q01DX005 (ip), vehicle: saline with Tween-80
  T/C: 104 % of control

## C[S+](C)CCCNC(=O)c1csc(-c2csc(-c3cscn3)n2)n1
[8]
  T/C: 104 % of control
[9]
  T/C: 96 % of control

## CS/C(=C/c1ccc2ccccc2[n+]1C)N1CCN(C)CC1
[8]
  T/C: 99 % of control
[9]
  T/C: 98 % of control
[10]
  T/C: 102 % of control

## CCN(CC)CCOc1ccc(-c2cc(-c3ccccc3)nc(N)n2)cc1
[10]
  T/C: 106 % of control
[11]
  T/C: 98 % of control and 100 % of control and 106 % of control
[12]
  T/C: 111 % of control and 114 % of control and 123 % of control

## COc1cccc(C(=O)CCN(C)C(=O)OCc2ccccc2)c1OCc1ccccc1
dose: 25.0 mg/kg/injection, schedule: Q01DX005 (ip), vehicle: saline with Tween-80
  T/C: 94 % of control
[1]
  T/C: 103 % of control
[2]
  T/C: 103 % of control

## COC(=O)C1CCCC(C(=O)O)C1 (configuration not stated)
dose: 100.0 mg/kg/injection, schedule: Q01DX002 (ip), vehicle: saline with Tween-80
  T/C: 102 % of control
dose: 200.0 mg/kg/injection, schedule: Q01DX002 (ip), vehicle: saline with Tween-80
  T/C: 102 % of control
dose: 400.0 mg/kg/injection, schedule: Q01DX002 (ip), vehicle: saline with Tween-80
  T/C: 117 % of control

## [F][Sn]([F])([c]1ccccc1)[c]1ccccc1
dose: 1.56 mg/kg/injection, schedule: Q01DX009 (ip), vehicle: Klucel (hydroxypropylcellulose) (HPC)
  T/C: 196 % of control

## CCN(CC)Cc1c(O)ccc(C(C)=O)c1O
[11]
  T/C: 89 % of control
[12]
  T/C: 100 % of control

## CCCCCCCCCCN(CCCCCCCCCC)C1CC(OC2CC(O)(C(C)=O)Cc3c(O)c4c(c(O)c32)C(=O)c2c(OC)cccc2C4=O)OC(C)C1O (configuration not stated)
dose: 3.13 mg/kg/injection, schedule: Q01DX009 (ip), vehicle: distilled water + Tween-80
  T/C: 113 % of control
dose: 4.7 mg/kg/injection, schedule: Q04DX003 (ip), vehicle: other
  T/C: 104 % of control
dose: 6.25 mg/kg/injection, schedule: Q01DX009 (ip), vehicle: distilled water + Tween-80
  T/C: 96 % of control
dose: 9.4 mg/kg/injection, schedule: Q04DX003 (ip), vehicle: other
  T/C: 104 % of control
dose: 12.5 mg/kg/injection, schedule: Q01DX009 (ip), vehicle: distilled water + Tween-80
  T/C: 102 % of control
dose: 18.8 mg/kg/injection, schedule: Q04DX003 (ip), vehicle: other
  T/C: 112 % of control
dose: 37.5 mg/kg/injection, schedule: Q04DX003 (ip), vehicle: other
  T/C: 105 % of control
dose: 75.0 mg/kg/injection, schedule: Q04DX003 (ip), vehicle: other
  T/C: 103 % of control

## COc1ccc(N2C(=S)N(c3cccc(Cl)c3Cl)C(=O)C(N=Nc3ccccc3Cl)C2O)cc1 (configuration not stated)
dose: 100.0 mg/kg/injection, schedule: Q04DX003 (ip), vehicle: distilled water + alcohol
  T/C: 102 % of control
dose: 200.0 mg/kg/injection, schedule: Q04DX003 (ip), vehicle: distilled water + alcohol
  T/C: 99 % of control
dose: 400.0 mg/kg/injection, schedule: Q04DX003 (ip), vehicle: distilled water + alcohol
  T/C: 97 % of control

## Cc1cc[c]([Sn]([Cl])([O][Sn]([Cl])([c]2ccc(C)cc2)[c]2ccc(C)cc2)[c]2ccc(C)cc2)cc1
dose: 1.56 mg/kg/injection, schedule: Q01DX005 (ip), vehicle: Klucel (hydroxypropylcellulose) (HPC)
  T/C: 105 % of control
dose: 3.12 mg/kg/injection, schedule: Q01DX005 (ip), vehicle: Klucel (hydroxypropylcellulose) (HPC)
  T/C: 96 % of control
dose: 3.12 mg/kg/injection, schedule: Q01DX005 (ip), vehicle: saline
  T/C: 115 % of control
dose: 6.25 mg/kg/injection, schedule: Q01DX005 (ip), vehicle: Klucel (hydroxypropylcellulose) (HPC)
  T/C: 94 % of control
[8]
  T/C: 118 % of control
[3]
  T/C: 99 % of control

## C=CC1CN2CCC1CC2C(O)c1ccnc2ccccc12 (configuration not stated)
dose: 60.0 mg/kg/injection, schedule: Q01DX005 (ip), vehicle: saline
  T/C: 98 % of control
dose: 120.0 mg/kg/injection, schedule: Q01DX005 (ip), vehicle: saline
  T/C: 98 % of control

## COc1cccc2c1C(=O)c1c(O)c3c(c(O)c1C2=O)C[C@@](O)(C(C)=O)C[C@@H]3OC1CC(N2CCOCC2)C(O)C(C)O1 (some centres not stated)
dose: 25.0 micrograms/kg/injection, schedule: Q04DX003 (ip), vehicle: water
  T/C: 112 % of control
dose: 50.0 micrograms/kg/injection, schedule: Q04DX003 (ip), vehicle: water
  T/C: 101 % of control and 98 % of control and 108 % of control
dose: 100.0 micrograms/kg/injection, schedule: Q04DX003 (ip), vehicle: water
  T/C: 115 % of control [middle of 4 runs]

## C=C1CC2(CCOc3ccc(Cl)cc32)OC1=O (configuration not stated)
dose: 25.0 mg/kg/injection, schedule: Q04DX003 (ip), vehicle: saline with Tween-80
  T/C: 110 % of control
dose: 50.0 mg/kg/injection, schedule: Q04DX003 (ip), vehicle: saline with Tween-80
  T/C: 118 % of control
dose: 100.0 mg/kg/injection, schedule: Q04DX003 (ip), vehicle: saline with Tween-80
  T/C: 101 % of control and 116 % of control
dose: 200.0 mg/kg/injection, schedule: Q04DX003 (ip), vehicle: saline with Tween-80
  T/C: 101 % of control

## Cc1csc(/N=C2\N/C(=N\c3nc(C)cs3)c3ccccc32)n1
[13]
  T/C: 88 % of control
[14]
  T/C: 86 % of control

## Cc1nc2ccccc2c(=O)n1/N=C1/C(=O)Nc2ccccc21
[4]
  T/C: 90 % of control
dose: 50.0 mg/kg/injection, schedule: Q01DX005 (ip), vehicle: Klucel (hydroxypropylcellulose) (HPC)
  T/C: 90 % of control
[5]
  T/C: 88 % of control
dose: 200.0 mg/kg/injection, schedule: Q01DX005 (ip), vehicle: Klucel (hydroxypropylcellulose) (HPC)
  T/C: 103 % of control

## CC(=O)Nc1sccc1S(=O)(=O)c1ccsc1NC(C)=O
dose: 100.0 mg/kg/injection, schedule: Q04DX002 (ip), vehicle: saline with Tween-80
  T/C: 100 % of control
dose: 200.0 mg/kg/injection, schedule: Q04DX002 (ip), vehicle: saline with Tween-80
  T/C: 105 % of control
dose: 400.0 mg/kg/injection, schedule: Q04DX002 (ip), vehicle: saline with Tween-80
  T/C: 98 % of control

## Cc1cc(OCc2nnc3n2S(=O)(=O)c2ccccc2N3C)ccc1Cl
dose: 60.0 mg/kg/injection, schedule: Q01DX005 (ip), vehicle: saline with Tween-80
  T/C: 87 % of control
dose: 120.0 mg/kg/injection, schedule: Q01DX005 (ip), vehicle: saline with Tween-80
  T/C: 90 % of control

## CCOC(=O)c1ccc(NC(=O)Nc2ncc(Cl)cc2Cl)cc1
[13]
  T/C: 89 % of control
[14]
  T/C: 86 % of control
dose: 200.0 mg/kg/injection, schedule: Q01DX009 (ip), vehicle: saline with Tween-80
  T/C: 94 % of control

## CC1(C)N=C(N)N=C(N)N1c1ccc(Cl)cc1
[9]
  T/C: 103 % of control
[10]
  T/C: 117 % of control
[11]
  T/C: 124 % of control

## O=C1CC2(CCCCC2)C(=O)N1c1cc([N+](=O)[O-])ccn1
[6]
  T/C: 100 % of control
[7]
  T/C: 101 % of control
dose: 50.0 mg/kg/injection, schedule: Q01DX009 (ip), vehicle: Klucel (hydroxypropylcellulose) (HPC)
  T/C: 100 % of control and 92 % of control

From PubChem BioAssay AID330 (DTP/NCI, 2004)
